Results published in patent US20100298141A1, “SUBSTITUTED PYRIDINE N-OXIDE HERBICIDES” (E. I. DU PONT DE NEMOURS AND COMPANY, priority 2007, published 2010).

Experiments:
itchgrass = assay: Test G preemergence test; format: in vivo, Rottboellia cochinchinensis; conditions: scale 0 to 100
field violet = assay: Test D preemergence test; format: in vivo, Viola arvensis; conditions: scale 0 to 100
From the text: (§1) Seeds of plant species selected from annual bluegrass (Poa annua), blackgrass (Alopecurus myosuroides), downy bromegrass (Bromus tectorum), field violet (Viola arvensis), green foxtail (Setaria viridis), Italian ryegrass (Lolium multiflorum), littleseed canarygrass (Phalaris minor), spring wheat (Triticum aestivum), wild oat (Avena fatua), […]), winter barley (Hordeum vulgare), and winter wheat (Triticum aestivum) were planted and treated preemergence with test chemicals formulated in a non-phytotoxic solvent mixture which included a surfactant. […] A dash (-) response means no test result.

littleseed canarygrass = assay: Test D preemergence test; format: in vivo, Phalaris minor; conditions: scale 0 to 100
From the text: as §1

cotton = assay: Test G preemergence test; format: in vivo, Gossypium hirsutum; conditions: scale 0 to 100
yellow foxtail = assay: Test G preemergence test; format: in vivo, Pennisetum glaucum; conditions: scale 0 to 100
duck salad = assay: Test B flooded paddy test; format: in vivo, Heteranthera limosa; conditions: Flood, 250 g ai/ha, 13 to 15 days; scale 0 to 100, 0 no effect, 100 complete control
From the text: (§2) At time of treatment, test pots were flooded to 3 cm above the soil surface, treated by application of test compounds directly to the paddy water, and then maintained at that water depth for the duration of the test. Treated plants and controls were maintained in a greenhouse for 13 to 15 days, after which time all species were compared to controls and visually evaluated. […] A dash (-) response means no test result.

goosegrass = assay: Test G preemergence test; format: in vivo, Eleusine indica; conditions: scale 0 to 100
tall waterhemp = assay: Test G preemergence test; format: in vivo, Amaranthus tuberculatos; conditions: scale 0 to 100
blackgrass = assay: Test D preemergence test; format: in vivo, Alopecurus myosuroides; conditions: scale 0 to 100
From the text: as §1

winter wheat = assay: Test D preemergence test; format: in vivo, Triticum aestivum; conditions: scale 0 to 100
From the text: as §1

spring wheat = assay: Test D preemergence test; format: in vivo, Triticum aestivum; conditions: scale 0 to 100
From the text: as §1

soybean = assay: Test G preemergence test; format: in vivo, Glycine max; conditions: scale 0 to 100
sorghum = assay: Test G preemergence test; format: in vivo, Sorghum vulgare; conditions: scale 0 to 100
eastern black nightshade = assay: Test G preemergence test; format: in vivo, Solanum ptycanthum; conditions: scale 0 to 100
large crabgrass = assay: Test G preemergence test; format: in vivo, Digitaria sanguinalis; conditions: scale 0 to 100
corn = assay: Test G preemergence test; format: in vivo, Zea mays; conditions: scale 0 to 100
umbrella sedge = assay: Test B flooded paddy test; format: in vivo, Cyperus difformis; conditions: Flood, 250 g ai/ha, 13 to 15 days; scale 0 to 100, 0 no effect, 100 complete control
From the text: as §2

annual bluegrass = assay: Test D preemergence test; format: in vivo, Poa annua; conditions: scale 0 to 100
From the text: as §1

yellow nutsedge = assay: Test G preemergence test; format: in vivo, Cyperus esculentus; conditions: scale 0 to 100
Italian ryegrass = assay: Test D preemergence test; format: in vivo, Lolium multiflorum; conditions: scale 0 to 100
From the text: as §1

rice = assay: Test B flooded paddy test; format: in vivo, Oryza sativa; conditions: Flood, 250 g ai/ha, 13 to 15 days; scale 0 to 100, 0 no effect, 100 complete control
From the text: as §2

broadleaf signalgrass = assay: Test G preemergence test; format: in vivo, Brachiaria platyphylla; conditions: scale 0 to 100
wild oat = assay: Test D preemergence test; format: in vivo, Avena fatua; conditions: scale 0 to 100
From the text: as §1

lambsquarters = assay: Test G preemergence test; format: in vivo, Chenopodium album; conditions: scale 0 to 100
barnyardgrass = assay: Test B flooded paddy test; format: in vivo, Echinochloa crus-galli; conditions: Flood, 250 g ai/ha, 13 to 15 days; scale 0 to 100, 0 no effect, 100 complete control
From the text: as §2

woolly cupgrass = assay: Test G preemergence test; format: in vivo, Eriochloa villosa; conditions: scale 0 to 100

With `Cn1nc(C(F)(F)F)c(CS(=O)(=O)c2cccc[n+]2[O-])c1OC(F)F` [Compound 4] the “Plant response rating, Itchgrass” value (itchgrass; 31 g ai/ha) was 0, the “Plant response rating, Itchgrass” value (itchgrass; 62 g ai/ha) was 20 and the “Plant response rating, Itchgrass” value (itchgrass; 125 g ai/ha) was 30. For the same compound, the “Plant response rating, Itchgrass” value (itchgrass; 250 g ai/ha) was 60, the “Plant response rating, Field Violet” value (field violet; 31 g ai/ha) was 0 and the “Plant response rating, Field Violet” value (field violet; 62 g ai/ha) was 0. For the same compound, the “Plant response rating, Field Violet” value (field violet; 125 g ai/ha) was 0, the “Plant response rating, Field Violet” value (field violet; 250 g ai/ha) was 10 and the “Plant response rating, Canarygrass” value (littleseed canarygrass; 31 g ai/ha) was 30. For the same compound, the “Plant response rating, Canarygrass” value (littleseed canarygrass; 62 g ai/ha) was 100, the “Plant response rating, Canarygrass” value (littleseed canarygrass; 125 g ai/ha) was 100 and the “Plant response rating, Canarygrass” value (littleseed canarygrass; 250 g ai/ha) was 100. The “Plant response rating, Cotton” value (cotton; 31 g ai/ha) was 5, the “Plant response rating, Cotton” value (cotton; 62 g ai/ha) was 25 and the “Plant response rating, Cotton” value (cotton; 125 g ai/ha) was 0. The “Plant response rating, Cotton” value (cotton; 250 g ai/ha) was 10, the “Plant response rating, Foxtail, Yellow” value (yellow foxtail; 31 g ai/ha) was 100 and the “Plant response rating, Foxtail, Yellow” value (yellow foxtail; 62 g ai/ha) was 100. For the same compound, the “Plant response rating, Foxtail, Yellow” value (yellow foxtail; 125 g ai/ha) was 100, the “Plant response rating, Foxtail, Yellow” value (yellow foxtail; 250 g ai/ha) was 100 and the “Plant response rating, Ducksalad” value (duck salad) was 90. The “Plant response rating, Goosegrass” value (goosegrass; 31 g ai/ha) was 80, the “Plant response rating, Goosegrass” value (goosegrass; 62 g ai/ha) was 95 and the “Plant response rating, Goosegrass” value (goosegrass; 125 g ai/ha) was 100. For the same compound, the “Plant response rating, Goosegrass” value (goosegrass; 250 g ai/ha) was 100, the “Plant response rating, Waterhemp” value (tall waterhemp; 31 g ai/ha) was 80 and the “Plant response rating, Waterhemp” value (tall waterhemp; 62 g ai/ha) was 100. For the same compound, the “Plant response rating, Waterhemp” value (tall waterhemp; 125 g ai/ha) was 100, the “Plant response rating, Waterhemp” value (tall waterhemp; 250 g ai/ha) was 100 and the “Plant response rating, Blackgrass” value (blackgrass; 31 g ai/ha) was 0. For the same compound, the “Plant response rating, Blackgrass” value (blackgrass; 62 g ai/ha) was 30, the “Plant response rating, Blackgrass” value (blackgrass; 125 g ai/ha) was 50 and the “Plant response rating, Blackgrass” value (blackgrass; 250 g ai/ha) was 100. For the same compound, the “Plant response rating, Wheat, Winter” value (winter wheat; 31 g ai/ha) was 30, the “Plant response rating, Wheat, Winter” value (winter wheat; 62 g ai/ha) was 20 and the “Plant response rating, Wheat, Winter” value (winter wheat; 125 g ai/ha) was 25. For the same compound, the “Plant response rating, Wheat, Winter” value (winter wheat; 250 g ai/ha) was 45, the “Plant response rating, Wheat, Spring” value (spring wheat; 31 g ai/ha) was 20 and the “Plant response rating, Wheat, Spring” value (spring wheat; 62 g ai/ha) was 30. The “Plant response rating, Wheat, Spring” value (spring wheat; 125 g ai/ha) was 30, the “Plant response rating, Wheat, Spring” value (spring wheat; 250 g ai/ha) was 30 and the “Plant response rating, Soybean” value (soybean; 31 g ai/ha) was 0. The “Plant response rating, Soybean” value (soybean; 62 g ai/ha) was 10, the “Plant response rating, Soybean” value (soybean; 125 g ai/ha) was 15 and the “Plant response rating, Soybean” value (soybean; 250 g ai/ha) was 15. For the same compound, the “Plant response rating, Sorghum” value (sorghum; 31 g ai/ha) was 10, the “Plant response rating, Sorghum” value (sorghum; 62 g ai/ha) was 25 and the “Plant response rating, Sorghum” value (sorghum; 125 g ai/ha) was 35. For the same compound, the “Plant response rating, Sorghum” value (sorghum; 250 g ai/ha) was 40, the “Plant response rating, Nightshade” value (eastern black nightshade; 31 g ai/ha) was 20 and the “Plant response rating, Nightshade” value (eastern black nightshade; 62 g ai/ha) was 30. The “Plant response rating, Nightshade” value (eastern black nightshade; 125 g ai/ha) was 90, the “Plant response rating, Nightshade” value (eastern black nightshade; 250 g ai/ha) was 100 and the “Plant response rating, Crabgrass, Large” value (large crabgrass; 31 g ai/ha) was 85. For the same compound, the “Plant response rating, Crabgrass, Large” value (large crabgrass; 62 g ai/ha) was 80, the “Plant response rating, Crabgrass, Large” value (large crabgrass; 125 g ai/ha) was 95 and the “Plant response rating, Crabgrass, Large” value (large crabgrass; 250 g ai/ha) was 100. For the same compound, the “Plant response rating, Corn” value (corn; 31 g ai/ha) was 0, the “Plant response rating, Corn” value (corn; 62 g ai/ha) was 0 and the “Plant response rating, Corn” value (corn; 125 g ai/ha) was 5. The “Plant response rating, Corn” value (corn; 250 g ai/ha) was 0, the “Plant response rating, Umbrella Sedge” value (umbrella sedge) was 100 and the “Plant response rating, Bluegrass” value (annual bluegrass; 31 g ai/ha) was 50. For the same compound, the “Plant response rating, Bluegrass” value (annual bluegrass; 62 g ai/ha) was 50, the “Plant response rating, Bluegrass” value (annual bluegrass; 125 g ai/ha) was 80 and the “Plant response rating, Bluegrass” value (annual bluegrass; 250 g ai/ha) was 100. The “Plant response rating, Nutsedge, Yellow” value (yellow nutsedge; 31 g ai/ha) was 0, the “Plant response rating, Nutsedge, Yellow” value (yellow nutsedge; 62 g ai/ha) was 0 and the “Plant response rating, Nutsedge, Yellow” value (yellow nutsedge; 125 g ai/ha) was 15. For the same compound, the “Plant response rating, Nutsedge, Yellow” value (yellow nutsedge; 250 g ai/ha) was 40, the “Plant response rating, Ryegrass, Italian” value (Italian ryegrass; 31 g ai/ha) was 20 and the “Plant response rating, Ryegrass, Italian” value (Italian ryegrass; 62 g ai/ha) was 20. The “Plant response rating, Ryegrass, Italian” value (Italian ryegrass; 125 g ai/ha) was 20, the “Plant response rating, Ryegrass, Italian” value (Italian ryegrass; 250 g ai/ha) was 50 and the “Plant response rating, Rice, Transplanted” value (rice) was 90. The “Plant response rating, Signalgrass” value (broadleaf signalgrass; 31 g ai/ha) was 0, the “Plant response rating, Signalgrass” value (broadleaf signalgrass; 62 g ai/ha) was 20 and the “Plant response rating, Signalgrass” value (broadleaf signalgrass; 125 g ai/ha) was 80. The “Plant response rating, Signalgrass” value (broadleaf signalgrass; 250 g ai/ha) was 90, the “Plant response rating, Oat, Wild” value (wild oat; 31 g ai/ha) was 25 and the “Plant response rating, Oat, Wild” value (wild oat; 62 g ai/ha) was 30. For the same compound, the “Plant response rating, Oat, Wild” value (wild oat; 125 g ai/ha) was 30, the “Plant response rating, Oat, Wild” value (wild oat; 250 g ai/ha) was 35 and the “Plant response rating, Lambsquarters” value (lambsquarters; 31 g ai/ha) was 0. The “Plant response rating, Lambsquarters” value (lambsquarters; 62 g ai/ha) was 10, the “Plant response rating, Lambsquarters” value (lambsquarters; 125 g ai/ha) was 10 and the “Plant response rating, Lambsquarters” value (lambsquarters; 250 g ai/ha) was 10. The “Plant response rating, Barnyardgrass” value (barnyardgrass) was 80, the “Plant response rating, Cupgrass, Woolly” value (woolly cupgrass; 31 g ai/ha) was 0 and the “Plant response rating, Cupgrass, Woolly” value (woolly cupgrass; 62 g ai/ha) was 75. The “Plant response rating, Cupgrass, Woolly” value (woolly cupgrass; 125 g ai/ha) was 75 and the “Plant response rating, Cupgrass, Woolly” value (woolly cupgrass; 250 g ai/ha) was 100.
